Laboratory results from ChEMBL document CHEMBL3885881, “DrugMatrix”.

Species on record: Rattus norvegicus
Experiment: DrugMatrix - Regimen: Daily Repeat
Type: toxicity, organism-based, Sprague-Dawley
Set-up: regimen Daily Repeat, gender Male, age 6-8 weeks
Details: in vivo, po, route oral GAVAGE, vehicle 100 % WATER; for ABSOLUTE BASOPHIL / ABSOLUTE EOSINOPHIL / ABSOLUTE LYMPHOCYTE / ABSOLUTE MONOCYTE / ABSOLUTE SEGMENTED NEUTROPHIL / BASOPHIL / EOSINOPHIL / ERYTHROCYTE COUNT / HEMATOCRIT / HEMOGLOBIN / LEUKOCYTE COUNT / LYMPHOCYTE / MEAN CORPUSCULAR HEMOGLOBIN / MEAN CORPUSCULAR HEMOGLOBIN CONCENTRATION / MEAN CORPUSCULAR VOLUME / MONOCYTE / NEUTROPHIL / NUCLEATED RED BLOOD CELLS / PLATELET COUNT: tissue Blood; for ALANINE AMINOTRANSFERASE / ALBUMIN / ALKALINE PHOSPHATASE / ASPARTATE AMINOTRANSFERASE / BLOOD UREA NITROGEN / CARBON DIOXIDE / CHLORIDE / CHOLESTEROL / CREATINE PHOSPHOKINASE / CREATININE / GLUCOSE / LACTATE DEHYDROGENASE / LIPASE / PHOSPHORUS / POTASSIUM / SODIUM / TOTAL BILIRUBIN / TOTAL PROTEIN / URIC ACID: tissue Plasma
[1] = 0 mg/kg, 72 h, dose level Control, time 3 day
[2] = 0 mg/kg, 120 h, dose level Control, time 5 day
[3] = 160 mg/kg, 72 h, dose level Low, time 3 day

N[C@@H](Cc1ccc(O)c(O)c1)C(=O)O [LEVODOPA]
ABSOLUTE BASOPHIL [1]: 0 CELLS/uL
ABSOLUTE EOSINOPHIL [1]: 86.33 CELLS/uL
ABSOLUTE LYMPHOCYTE [1]: 12090.17 CELLS/uL
ABSOLUTE MONOCYTE [1]: 166.67 CELLS/uL
ABSOLUTE SEGMENTED NEUTROPHIL [1]: 1090.17 CELLS/uL
BASOPHIL [1]: 0%
EOSINOPHIL [1]: 0.67%
ERYTHROCYTE COUNT [1]: 5.57 x10E6/uL
HEMATOCRIT [1]: 35.33%
HEMOGLOBIN [1]: 13.83 G/DL
LEUKOCYTE COUNT [1]: 13.43 x10E3/uL
LYMPHOCYTE [1]: 89.83%
MEAN CORPUSCULAR HEMOGLOBIN [1]: 24.88 pg
MEAN CORPUSCULAR HEMOGLOBIN CONCENTRATION [1]: 39.15 G/DL
MEAN CORPUSCULAR VOLUME [1]: 63.52 fL
MONOCYTE [1]: 1.17%
NEUTROPHIL [1]: 8.33%
NUCLEATED RED BLOOD CELLS [1]: 0 /100WBC
PLATELET COUNT [1]: 1181.33 x10E3/uL
ALANINE AMINOTRANSFERASE [1]: 48.33 u/L
ALBUMIN [1]: 4.1 G/DL
ALKALINE PHOSPHATASE [1]: 395 u/L
ASPARTATE AMINOTRANSFERASE [1]: 81.83 u/L
BLOOD UREA NITROGEN [1]: 15.83 mg/dL
CARBON DIOXIDE [1]: 24.17 mmol/L
CHLORIDE [1]: 103.83 MEQ/L
CHOLESTEROL [1]: 63.67 mg/dL
CREATINE PHOSPHOKINASE [1]: 372.83 u/L
CREATININE [1]: 0.18 mg/dL
GLUCOSE [1]: 173.83 mg/dL
LACTATE DEHYDROGENASE [1]: 188.33 u/L
LIPASE [1]: 9.5 u/L
PHOSPHORUS [1]: 11.95 mg/dL
POTASSIUM [1]: 5.99 MEQ/L
SODIUM [1]: 144.43 MEQ/L
TOTAL BILIRUBIN [1]: 0.15 mg/dL
TOTAL PROTEIN [1]: 5.95 G/DL
URIC ACID [1]: 1.82 mg/dL
ABSOLUTE BASOPHIL [2]: 0 CELLS/uL
ABSOLUTE EOSINOPHIL [2]: 26.67 CELLS/uL
ABSOLUTE LYMPHOCYTE [2]: 7583.83 CELLS/uL
ABSOLUTE MONOCYTE [2]: 131.33 CELLS/uL
ABSOLUTE SEGMENTED NEUTROPHIL [2]: 674.83 CELLS/uL
BASOPHIL [2]: 0%
EOSINOPHIL [2]: 0.33%
ERYTHROCYTE COUNT [2]: 5.78 x10E6/uL
HEMATOCRIT [2]: 36.48%
HEMOGLOBIN [2]: 14.03 G/DL
LEUKOCYTE COUNT [2]: 8.42 x10E3/uL
LYMPHOCYTE [2]: 89.83%
MEAN CORPUSCULAR HEMOGLOBIN [2]: 24.3 pg
MEAN CORPUSCULAR HEMOGLOBIN CONCENTRATION [2]: 38.52 G/DL
MEAN CORPUSCULAR VOLUME [2]: 63.15 fL
MONOCYTE [2]: 1.67%
NEUTROPHIL [2]: 8.17%
NUCLEATED RED BLOOD CELLS [2]: 0 /100WBC
PLATELET COUNT [2]: 1186.67 x10E3/uL
ALANINE AMINOTRANSFERASE [2]: 50.17 u/L
ALBUMIN [2]: 4.07 G/DL
ALKALINE PHOSPHATASE [2]: 367.5 u/L
ASPARTATE AMINOTRANSFERASE [2]: 81.67 u/L
BLOOD UREA NITROGEN [2]: 16.17 mg/dL
CARBON DIOXIDE [2]: 32.33 mmol/L
CHLORIDE [2]: 101.5 MEQ/L
CHOLESTEROL [2]: 65.33 mg/dL
CREATINE PHOSPHOKINASE [2]: 255.33 u/L
CREATININE [2]: 0.17 mg/dL
GLUCOSE [2]: 139.33 mg/dL
LACTATE DEHYDROGENASE [2]: 95 u/L
LIPASE [2]: 10.5 u/L
PHOSPHORUS [2]: 10.38 mg/dL
POTASSIUM [2]: 6.11 MEQ/L
SODIUM [2]: 145.55 MEQ/L
TOTAL BILIRUBIN [2]: 0.17 mg/dL
TOTAL PROTEIN [2]: 5.98 G/DL
URIC ACID [2]: 0.93 mg/dL
ABSOLUTE BASOPHIL [3]: 0 CELLS/uL
ABSOLUTE EOSINOPHIL [3]: 48 CELLS/uL
ABSOLUTE LYMPHOCYTE [3]: 13173.67 CELLS/uL
ABSOLUTE MONOCYTE [3]: 48 CELLS/uL
ABSOLUTE SEGMENTED NEUTROPHIL [3]: 2130.33 CELLS/uL
BASOPHIL [3]: 0%
EOSINOPHIL [3]: 0.33%
ERYTHROCYTE COUNT [3]: 5.35 x10E6/uL
HEMATOCRIT [3]: 34.57%
HEMOGLOBIN [3]: 13.5 G/DL
LEUKOCYTE COUNT [3]: 15.4 x10E3/uL
LYMPHOCYTE [3]: 85.67%
MEAN CORPUSCULAR HEMOGLOBIN [3]: 25.23 pg
MEAN CORPUSCULAR HEMOGLOBIN CONCENTRATION [3]: 39.07 G/DL
MEAN CORPUSCULAR VOLUME [3]: 64.63 fL
MONOCYTE [3]: 0.33%
NEUTROPHIL [3]: 13.67%
NUCLEATED RED BLOOD CELLS [3]: 0 /100WBC
PLATELET COUNT [3]: 1267 x10E3/uL
ALANINE AMINOTRANSFERASE [3]: 43.67 u/L
ALBUMIN [3]: 4 G/DL
ALKALINE PHOSPHATASE [3]: 349.67 u/L
ASPARTATE AMINOTRANSFERASE [3]: 93.67 u/L
BLOOD UREA NITROGEN [3]: 15.67 mg/dL
CARBON DIOXIDE [3]: 22 mmol/L
CHLORIDE [3]: 103.33 MEQ/L
CHOLESTEROL [3]: 61 mg/dL
CREATINE PHOSPHOKINASE [3]: 665.33 u/L
CREATININE [3]: 0.14 mg/dL
GLUCOSE [3]: 158.33 mg/dL
LACTATE DEHYDROGENASE [3]: 401 u/L
LIPASE [3]: 8.67 u/L
PHOSPHORUS [3]: 12.63 mg/dL
POTASSIUM [3]: 5.77 MEQ/L
SODIUM [3]: 144.43 MEQ/L
TOTAL BILIRUBIN [3]: 0.2 mg/dL
TOTAL PROTEIN [3]: 5.73 G/DL
URIC ACID [3]: 1.87 mg/dL
